According to patent US7728128B2, “Dibenzo[c,h][1,5]naphthyridines and their use as DNA probes” (Institut National de la Sante et de la Recherche Medicate …, priority 2006, dated 2010):

Assays:
plasmid DNA [1] = assay: absorption of free molecules before and after addition of plasmid DNA; assay type: physicochemical; design: Absorption maxima free dye / Absorption maxima DNA bound dye: unit not given here; conditions: for Absorption maxima DNA bound dye: after addition of plasmid DNA; for Absorption maxima free dye: free molecule, before addition of plasmid DNA
Procedure: (§1) Plasmid dsDNA was purified using a Qiagen Maxiprep kit and used in the supercoiled form for absorption and fluorescence studies. E. coli total RNA was bought from Ambion, dA/dT and dG/dC homopolymers were purchased from Amersham Biosciences. Calf thymus (CT) high-molecular weight DNA and Hoechst 33258 were obtained from Sigma-Aldrich. Ethidium bromide was purchased from Amresco.
(§2) Spectrometry and fluorimetry were performed using a SpectraMax384 (Molecular Devices) and a Luminescence Spectrometer LS50B (Perkin Elmer). Fluorescence emission of compound I in complex with DNA and RNA was measured in 50 mM Na phosphate buffer, pH 7.2 at room temperature. Before use, total E. coli RNA was heated to 100° C. for 1 min and immediately transferred on ice for 5 min before mixing with compound I solution. All measurements were carried out at room temperature (20-23° C.) in solutions protected from light and incubated for ˜10-15 min after dilution. The units of b/dye and bp/dye are defined as moles of RNA bases or DNA base pairs per mole of dye. Quantum yield was measured using quinine sulphate as standard as described in (Iupac Commission on Photochemistry, EPA Newsletter of November 1986, 21-29) using FLUOROMAX-3 Spex Spectrofluorometer (HORIBA) and UVIKON XL Spectrophotometer (SECOMAM).
(§3) Although compound I also stains mitotic chromosomes (FIG. 1D), theoretically it was possible that it binds specifically to DNA-associated proteins (for example histones) rather than to nucleic acids. To resolve this issue, the absorption and emission spectra of free compound I before and after addition of dsDNA were recorded. […] Molar extinction coefficient (EC) of free compound I at 391 nm was measured at 10,800 cm^−1 M^−1. In the presence of ds plasmid DNA the absorption peaks of compound I at 373 and 391 nm decreased, and a new peak appears with a maximum at 435 nm (FIG. 1E). An overlay of the absorption spectra in complex with dsDNA at different bp per dye ratios gives a single isosbestic point at 398 nm. Free compound I fluoresces around 438 nm (the exact position of the peak depends on the excitation wavelength). […] At the same time, a new peak evolves with a maximum around 484 nm (FIG. 1F). The exact maximum of fluorescence of compound I/DNA complexes varies insignificantly as a function of the dye/bp ratio and/or base pairs composition of the nucleic acids. […] The quantum yield for compound I (excited at 435 nm) at 5 μM in 50 mM Na-phosphate, pH 7.2, was determined to be 2.7% for free dye and 13.8% in admixture with 50 μM CT DNA.
(§4) To get a further insight into how the structural properties of compound I contribute to its binding to DNA, the inventors analysed fourteen structural analogues present in the compound library. Although several of these compounds are fluorescent in vivo, this property went undetected in the initial screen most likely due to the latency period before the appearance of the signal (see below). To evaluate the activity of compound I-like molecules three tests were used: (1) in vivo, the inventors incubated human fibroblasts in the presence of the molecules and scored nuclear fluorescence in the microscope; (2 and 3) in vitro, the inventors looked at the absorption and fluorescence of free molecules before and after addition of plasmid DNA. […] With the exception of compound I and analogues 8 and 12, accurate in vitro measurement of the fluorescence intensities was impossible because the emission peaks for the free molecules were too close to that for the DNA-bound dye. This affected the height of the dye/DNA peaks.

plasmid DNA [2] = assay: fluorescence of free molecules before and after addition of plasmid DNA; assay type: physicochemical; design: Fluorescence maxima free dye / Fluorescence maxima DNA bound dye: unit not given beside the values; conditions: for Fluorescence maxima free dye: free molecule, before addition of plasmid DNA; for Fluorescence maxima DNA bound dye: after addition of plasmid DNA
Procedure: as §1, §2, §3, §4

human fibroblasts = assay: in vivo nuclear fluorescence of human fibroblasts incubated with the molecules, scored in the microscope; assay type: cell-based; design: key: Weak: Staining was defined as “weak”, “moderate” or “strong” based on the nuclear signal/background ratio.; Moderate: Staining was defined as “weak”, “moderate” or “strong” based on the nuclear signal/background ratio.; Strong: Staining was defined as “weak”, “moderate” or “strong” based on the nuclear signal/background ratio; conditions: 10 μM, 10-60 min (up to 24 hours); Alexa488/FITC filter
Procedure: In this study, three different types of cells were used: Xenopus epithelial cell line XL177 (Miller, L. et al., 1977, In Vitro, 13, 557-563) stably transformed with a YFP-α-tubulin expressing construct (pEYFP-Tub, Clontech), mouse fibroblasts, and primary human skin fibroblasts. XL177 cells were grown at 20° C. in 60% Leibowitz-15 medium, supplemented with antibiotics, 10% fetal calf serum (FCS) and 10 mM HEPES, pH 7.2 with addition of 0.7 mg/ml G418. Cells were plated into glass-bottom 96-well plates (Greiner, Germany) and left to spread for 24 hours before being incubated in the presence of the test compounds from the Curie-CNRS small molecule library (at 25 or 50 μM final concentration) for another 20-24 hours. Mouse and human fibroblasts were grown in DMEM with antibiotics and 10% FCS at 37° C. in the presence of 5% CO2. The cells were observed using a Zeiss Axiovert 200M microscope with a 40× oil immersion objective and a standard Alexa488/FITC filter (Omega, XF100-2; Ex475AF40/Em535AF45/Dichroic505). Subsequent experiments were carried out using smaller concentrations of compound I and incubation times as described in the text and figures legends. For the in vivo tests of compound I-like compounds, the molecules were added to cell culture medium at 10 μM final concentration and incubated with cells 10-60 min (up to 24 hours) prior to scoring.
as §4

melting point	Absorption maxima DNA bound dye (plasmid DNA [1])	Absorption maxima free dye (plasmid DNA [1])	Fluorescence maxima free dye (plasmid DNA [2])	Fluorescence maxima DNA bound dye (plasmid DNA [2])	Structure (SMILES)	Images of the in vivo nuclear staining (human fibroblasts)
153 °C					Cc1nc2c3ccccc3cnc2c2ccccc12 [Compound 1, 6-Methyl-dibenzo[c,h][1,5]naphthyridine]	
	365	360			CCN(CC)CCCNCc1nc2c3ccccc3cnc2c2ccccc12 [Compound 2, N′-Dibenzo[c,h][1,5]naphthyridin-6-ylmethyl-N,N-diethyl-propane-1,3-diamine]	
100 °C	375/375	375/375			OCCNCCNc1nc2c3ccccc3cnc2c2ccccc12 [Compound 3, 2-[2-(Dibenzo[c,h][1,5]naphthyridin-6-ylamino)-ethylamino]-ethanol]	
	375	370	404/ND		CN(C)CCNc1nc2c3ccccc3cnc2c2ccccc12 [Compound 4, N′-Dibenzo[c,h][1,5]naphthyridin-6-yl-N,N-dimethyl-ethane-1,3-diamine]	
160 °C					CN(C)CCNCc1nc2c3ccccc3cnc2c2ccccc12 [Compound 5, N′-dibenzo[c,h][1,5]naphthyridin-6-yl-methyl-N,N-dimethyl-ethane-1,2-diamine]	
45 °C					CN(C)CCCNCc1nc2c3ccccc3cnc2c2ccccc12 [Compound 6, N′-dibenzo[c,h][1,5]naphthyridin-6-yl-methyl-N,N-dimethyl-propane-1,3-diamine]	
156 °C		365/ND			CC(CO)(CO)NCc1nc2c3ccccc3cnc2c2ccccc12 [Compound 7, N′-dibenzo[c,h][1,5]naphthyridin-6-yl-methylamino-2-methyl-propane-1,3-diol]	
139 °C	425	385	427	468	COc1ccc2c(c1)c(C)nc1c3ccccc3c(NCCCN(C)C)nc21 [Compound 8, N′-(2-methoxy-12-methyl-dibenzo[c,h][1,5]naphthyridin-6-yl)-N,N-dimethyl-propane-1,3-diamine]	
169 °C	395	375	468	472	COc1ccc2c(c1)c(NCCN(C)C)nc1c3ccccc3c(NCCN(C)C)nc21 [Compound 9, N6,N12-bis-(2-dimethylamino-ethyl)-2-methoxy-dibenzo[c,h][1,5]naphthyridin-6,12-diamine]	Weak
155 °C	402	380	478	485	COc1ccc2c(c1)c(NCCCN(C)C)nc1c3ccccc3c(NCCCN(C)C)nc21 [Compound 10, N6,N12-bis-(3-dimethylamino-propyl)-2-methoxy-dibenzo[c,h][1,5]naphthyridine-6,12-diamine]	Moderate/ Strong
216 °C	405	390	484	500	COc1ccc2c(c1)c(NCCCN(C)C)nc1c3ccc(OC)cc3c(NCCCN(C)C)nc21 [Compound 11, N,N′-bis-(3-dimethylaminopropyl)-2,8-dimethoxy-dibenzo[c,h][1,5]naphthyridin-6,12-diamine]	Moderate/ Strong
	435	390	435	475	COc1ccc2c(c1)c(C)nc1c3ccc(OC)cc3c(NCCN(C)C)nc21 [Compound 12, N′-(2,8-dimethoxy-12-methyl-dibenzo[c,h][1,5]naphthyridin-6-yl)-N,N-dimethyl-ethane-1,3-diamine]	Weak
	394	390	425	407	COc1ccc2c(cnc3c4ccc(OC)cc4c(NCCN(C)C)nc23)c1 [Compound 13, N′-(2,8-dimethoxy-dibenzo[c,h][1,5]naphthyridin-6-yl)-N,N-dimethyl-ethane-1,3-diamine]	Moderate^§
209 °C	400/400	400/400	468	482	COc1ccc2c(c1)c(NCCN(C)C)nc1c3ccc(OC)cc3c(NCCN(C)C)nc21 [Compound 14, N,N′-bis-(3-dimethylamino-ethyl)-2,8-dimethoxy-dibenzo[c,h][1,5]naphthyridin-6,12-diamine]	Weak
